From ChEMBL document CHEMBL4020821, “Targeting Acidic Mammalian chitinase Is Effective in Animal Model of Asthma” (J Med Chem, 2018)

Experiments:
[1] = biological target: T1, Acidic mammalian chitinase (Mus musculus, UniProt Q91XA9); assay: Inhibition of mouse recombinant full length C-terminal His-tagged acidic mammalian chitinase expressed in CHO-K1 cells using 4-methylumbelliferyl-beta-D-N,N'-diacetylchitobioside hydrate as substrate after 60 mins by fluorescence assay
Chitotriosidase-1 [2] = biological target: T2, Chitotriosidase-1 (Homo sapiens, UniProt Q13231); assay: Inhibition of human recombinant full length C-terminal His-tagged chitotriosidase expressed in CHO-K1 cells using 4-methylumbelliferyl-beta-D-N,N',N\"\"-triacetylchitotrioside as substrate after 60 mins by fluorescence assay; type: cell-based
T2 sequence (Q13231 whole entry): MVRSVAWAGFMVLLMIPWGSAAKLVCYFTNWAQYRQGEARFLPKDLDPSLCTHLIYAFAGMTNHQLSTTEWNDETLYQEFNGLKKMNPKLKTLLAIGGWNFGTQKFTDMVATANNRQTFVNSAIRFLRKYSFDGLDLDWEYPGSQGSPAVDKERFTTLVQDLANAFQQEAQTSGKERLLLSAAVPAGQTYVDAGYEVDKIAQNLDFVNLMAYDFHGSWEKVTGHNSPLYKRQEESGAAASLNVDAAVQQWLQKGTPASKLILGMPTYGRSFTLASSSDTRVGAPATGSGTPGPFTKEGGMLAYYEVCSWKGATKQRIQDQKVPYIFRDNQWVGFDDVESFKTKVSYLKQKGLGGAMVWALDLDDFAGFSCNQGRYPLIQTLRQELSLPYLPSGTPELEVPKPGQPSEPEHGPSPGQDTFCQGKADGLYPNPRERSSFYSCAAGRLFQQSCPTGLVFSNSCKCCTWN

Chitotriosidase-1 [3] = biological target: T3, Chitotriosidase-1 (Mus musculus, UniProt Q9D7Q1); assay: Inhibition of mouse recombinant full length C-terminal His-tagged chitotriosidase expressed in CHO-K1 cells using 4-methylumbelliferyl-beta-D-N,N',N\"\"-triacetylchitotrioside as substrate after 60 mins by fluorescence assay; type: cell-based
T3 sequence (Q9D7Q1 whole entry): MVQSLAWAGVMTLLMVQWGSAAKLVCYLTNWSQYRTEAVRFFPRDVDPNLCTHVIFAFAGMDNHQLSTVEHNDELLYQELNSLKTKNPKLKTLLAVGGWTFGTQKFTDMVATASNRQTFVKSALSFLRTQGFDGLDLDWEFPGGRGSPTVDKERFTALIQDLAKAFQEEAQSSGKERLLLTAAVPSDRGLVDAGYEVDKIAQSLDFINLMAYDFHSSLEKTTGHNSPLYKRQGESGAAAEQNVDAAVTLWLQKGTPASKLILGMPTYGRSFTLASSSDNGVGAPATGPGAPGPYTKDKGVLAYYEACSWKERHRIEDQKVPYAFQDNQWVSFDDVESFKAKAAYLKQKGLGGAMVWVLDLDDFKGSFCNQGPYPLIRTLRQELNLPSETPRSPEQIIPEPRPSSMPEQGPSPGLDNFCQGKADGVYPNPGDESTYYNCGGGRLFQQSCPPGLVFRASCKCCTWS

[4] = Volume of distribution at steady state in BALB/c mouse at 3 mg/kg, iv by LC-MS/MS analysis; type: ADME, organism-based; details: in vivo, read-out: Vdss
[5] = Clearance in BALB/c mouse at 3 mg/kg, iv by LC-MS/MS analysis; type: ADME, organism-based; details: in vivo
[6] = Half life in BALB/c mouse at 3 mg/kg, iv by LC-MS/MS analysis; type: ADME, organism-based; details: in vivo
[7] = AUC (0 to infinity) in BALB/c mouse at 3 mg/kg, iv by LC-MS/MS analysis; type: ADME, organism-based; set-up: dose 3 mg/kg, route intravenous, time infinity; details: in vivo
[8] = Cmax in BALB/c mouse at 10 mg/kg, po by LC-MS/MS analysis; type: ADME, organism-based; set-up: dose 10 mg/kg, route oral; details: in vivo
[9] = Tmax in BALB/c mouse at 10 mg/kg, po by LC-MS/MS analysis; type: ADME, organism-based; details: in vivo
[10] = AUC (0 to infinity) in BALB/c mouse at 10 mg/kg, po by LC-MS/MS analysis; type: ADME, organism-based; set-up: dose 10 mg/kg, route oral, time infinity; details: in vivo
[11] = Oral bioavailability in BALB/c mouse at 10 mg/kg by LC-MS/MS analysis; type: ADME, organism-based; details: in vivo
[12] = Stability in liver microsomes (unknown origin) assessed as compound remaining after 20 mins; type: ADME, microsome; details: read-out: Stability
[13] = biological target: T1, Acidic mammalian chitinase; assay: Inhibition of mouse recombinant full length C-terminal His-tagged acidic mammalian chitinase expressed in CHO-K1 cells using 4-methylumbelliferyl-beta-D-N,N'-diacetylchitobioside hydrate as substrate after 60 mins by Lineweaver-Burk plot analysis
Chitotriosidase-1 [14] = biological target: T2, Chitotriosidase-1; assay: Inhibition of human recombinant full length C-terminal His-tagged chitotriosidase expressed in CHO-K1 cells using 4-methylumbelliferyl-beta-D-N,N',N\"\"-triacetylchitotrioside as substrate after 60 mins by Lineweaver-Burk plot analysis; type: cell-based
Chitotriosidase-1 [15] = biological target: T3, Chitotriosidase-1; assay: Inhibition of mouse recombinant full length C-terminal His-tagged chitotriosidase expressed in CHO-K1 cells using 4-methylumbelliferyl-beta-D-N,N',N\"\"-triacetylchitotrioside as substrate after 60 mins by Lineweaver-Burk plot analysis; type: cell-based
Salmonella typhimurium = assay: Genotoxicity in Salmonella typhimurium by Ames test; type: toxicity; details: salmonella enterica subsp. enterica serovar typhimurium

T1 sequence (Q91XA9 whole entry): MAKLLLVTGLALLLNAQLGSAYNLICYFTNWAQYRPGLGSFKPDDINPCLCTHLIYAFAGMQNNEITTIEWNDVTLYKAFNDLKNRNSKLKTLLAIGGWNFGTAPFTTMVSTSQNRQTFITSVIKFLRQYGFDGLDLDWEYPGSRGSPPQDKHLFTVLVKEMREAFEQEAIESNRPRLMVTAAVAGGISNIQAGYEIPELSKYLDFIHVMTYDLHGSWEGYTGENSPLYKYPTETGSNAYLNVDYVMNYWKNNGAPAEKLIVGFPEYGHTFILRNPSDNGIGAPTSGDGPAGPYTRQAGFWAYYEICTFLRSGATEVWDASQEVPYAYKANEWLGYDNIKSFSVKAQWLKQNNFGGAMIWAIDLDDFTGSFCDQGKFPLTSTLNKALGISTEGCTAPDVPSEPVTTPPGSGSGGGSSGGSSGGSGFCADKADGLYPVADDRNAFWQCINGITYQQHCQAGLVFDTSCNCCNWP

SMILES	IC50 (Chitotriosidase-1 [2])	IC50 (Chitotriosidase-1 [3])	also measured
Nc1n[nH]c(N2CCN(CCOc3ccc(Br)cc3)CC2)n1	6.76 µM	19.8 µM	IC50 [1]: 2.1 µM
Nc1n[nH]c(N2CCC(NC(=O)Nc3ccc(Br)cc3)CC2)n1	> 100 µM	> 100 µM	–
CN(CCc1ccccc1)C1CCN(c2nc(N)n[nH]2)CC1	> 100 µM	> 100 µM	–
CN(CCc1ccc(Cl)cc1)C1CCN(c2nc(N)n[nH]2)CC1	0.389 µM	7.47 µM	–
CN(CCc1ccc(C(C)(C)C)cc1)C1CCN(c2nc(N)n[nH]2)CC1	4.16 µM	> 100 µM	–
Nc1n[nH]c(N2CCC(NS(=O)(=O)Cc3ccc(Br)cc3)CC2)n1	> 100 µM	> 100 µM	Vd [4]: 1.16 L/kg; clearance [5]: 0.69 L/h/kg; half-life [6]: 11.1 h; AUC(0-inf) [7]: 4.34 µg·h/mL; Cmax [8]: 3.25 µg/mL; Tmax [9]: 1 h; AUC(0-inf) [10]: 8.21 µg·h/mL; bioavailability [11]: 57%; remaining at 20 min [12]: 100%
CC(C)CN(CCc1ccc(Br)cc1)C1CCN(c2nc(N)n[nH]2)CC1	0.123 µM	1.27 µM	Vd [4]: 1.66 L/kg; clearance [5]: 0.512 L/h/kg; half-life [6]: 3.25 h; AUC(0-inf) [7]: 5.86 µg·h/mL; Cmax [8]: 6.04 µg/mL; Tmax [9]: 0.5 h; AUC(0-inf) [10]: 27.9 µg·h/mL; bioavailability [11]: 100%; remaining at 20 min [12]: 78.3%
CC(C)c1ccc(CCN(C)C2CCN(c3nc(N)n[nH]3)CC2)cc1	1.17 µM	6.96 µM	–
Nc1n[nH]c(N2CCC(C(=O)NCc3ccc(Br)cc3)CC2)n1	> 100 µM	> 100 µM	–
CCN(CCc1ccc(Cl)cc1)C1CCN(c2nc(N)n[nH]2)CC1	0.385 µM	7.08 µM	–
CC(C)N(CCc1ccc(Cl)cc1)C1CCN(c2nc(N)n[nH]2)CC1	0.945 µM	15.6 µM	–
CC(C)CN(CCc1ccc(Cl)cc1)C1CCN(c2nc(N)n[nH]2)CC1	0.232 µM	2.96 µM	IC50 [1]: 0.0188 µM; Ki [13]: 0.0105 µM; Ki (Chitotriosidase-1 [14]): 0.312 µM; Ki (Chitotriosidase-1 [15]): 3.4 µM; Vd [4]: 2.33 L/kg; clearance [5]: 0.544 L/h/kg; half-life [6]: 2.97 h; AUC(0-inf) [7]: 5.52 µg·h/mL; Cmax [8]: 1.86 µg/mL; Tmax [9]: 0.25 h; AUC(0-inf) [10]: 9.56 µg·h/mL; bioavailability [11]: 52%; remaining at 20 min [12]: 76.9%; Activity (Salmonella typhimurium): Non-Toxic
Nc1n[nH]c(N2CCC(N(CCc3ccc(Cl)cc3)Cc3ccccc3)CC2)n1	0.163 µM	1.51 µM	IC50 [1]: 0.0112 µM
Nc1n[nH]c(N2CCC(N(CCc3ccc(Cl)cc3)Cc3ccccc3Cl)CC2)n1	0.149 µM	2.58 µM	IC50 [1]: 0.0097 µM; Vd [4]: 3.03 L/kg; clearance [5]: 2.7 L/h/kg; half-life [6]: 6.78 h; AUC(0-inf) [7]: 1.11 µg·h/mL; Cmax [8]: 0.618 µg/mL; Tmax [9]: 1 h; AUC(0-inf) [10]: 1.75 µg·h/mL; bioavailability [11]: 47%; remaining at 20 min [12]: 21%
CN(Cc1ccc(Br)cc1)CC1CCN(c2nc(N)n[nH]2)CC1	> 100 µM	> 100 µM	–
Cc1ccc(CCN(C)C2CCN(c3nc(N)n[nH]3)CC2)cc1	1.53 µM	12.6 µM	–
Nc1n[nH]c(N2CCC(N(CCc3ccc(Cl)cc3)CC3CCCCC3)CC2)n1	0.123 µM	2.03 µM	–
CN(CCc1ccc(Cl)cc1Cl)C1CCN(c2nc(N)n[nH]2)CC1	2.26 µM	47.6 µM	–
Nc1n[nH]c(N2CCC(N(CCc3ccc(Cl)cc3)Cc3cccc4ccccc34)CC2)n1	0.036 µM	0.573 µM	–
CN(CCc1ccc(Br)cc1)C1CCN(c2nc(N)n[nH]2)CC1	0.175 µM	2.7 µM	Vd [4]: 12.8 L/kg; clearance [5]: 3.16 L/h/kg; half-life [6]: 4.4 h; AUC(0-inf) [7]: 0.95 µg·h/mL; Cmax [8]: 0.672 µg/mL; Tmax [9]: 2 h; AUC(0-inf) [10]: 3.34 µg·h/mL; bioavailability [11]: 99%; remaining at 20 min [12]: 97.5%
Nc1n[nH]c(N2CCC(NC(=O)Cc3ccc(Br)cc3)CC2)n1	> 100 µM	> 100 µM	–
CN(CCc1ccc(C2CC2)cc1)C1CCN(c2nc(N)n[nH]2)CC1	0.765 µM	3.07 µM	–
CN(C1CCN(c2nc(N)n[nH]2)CC1)S(=O)(=O)Cc1ccc(Br)cc1	> 100 µM	> 100 µM	–
Nc1n[nH]c(N2CCN(C(=O)COc3ccc(Br)cc3)CC2)n1	> 100 µM	> 100 µM	–
CCN(CCc1ccc(Br)cc1)C1CCN(c2nc(N)n[nH]2)CC1	0.105 µM	2.72 µM	–
Nc1n[nH]c(N2CCC(CNC(=O)c3ccc(Br)cc3)CC2)n1	23.1 µM	> 100 µM	–
CCc1ccc(CCN(C)C2CCN(c3nc(N)n[nH]3)CC2)cc1	–	7.12 µM	–
